Measured values reported in ChEMBL document CHEMBL1221167, “Small-molecule inhibition of siderophore biosynthesis in Mycobacterium tuberculosis and Yersinia pestis” (Nat Chem Biol, 2005).
Active and inactive are the calls of the source. The calls are words filed in the database; no cut-off is given here.

Assays:
Pyochelin synthase PchD = target: T1, Pyochelin synthase PchD (Pseudomonas aeruginosa, UniProt Q9HWG3); assay: Inhibition of adenylation activity of Pseudomonas aeruginosa PchD after 15 mins by ATP-[32P]pyrophosphate exchange assay
T1 sequence (Q9HWG3 whole entry): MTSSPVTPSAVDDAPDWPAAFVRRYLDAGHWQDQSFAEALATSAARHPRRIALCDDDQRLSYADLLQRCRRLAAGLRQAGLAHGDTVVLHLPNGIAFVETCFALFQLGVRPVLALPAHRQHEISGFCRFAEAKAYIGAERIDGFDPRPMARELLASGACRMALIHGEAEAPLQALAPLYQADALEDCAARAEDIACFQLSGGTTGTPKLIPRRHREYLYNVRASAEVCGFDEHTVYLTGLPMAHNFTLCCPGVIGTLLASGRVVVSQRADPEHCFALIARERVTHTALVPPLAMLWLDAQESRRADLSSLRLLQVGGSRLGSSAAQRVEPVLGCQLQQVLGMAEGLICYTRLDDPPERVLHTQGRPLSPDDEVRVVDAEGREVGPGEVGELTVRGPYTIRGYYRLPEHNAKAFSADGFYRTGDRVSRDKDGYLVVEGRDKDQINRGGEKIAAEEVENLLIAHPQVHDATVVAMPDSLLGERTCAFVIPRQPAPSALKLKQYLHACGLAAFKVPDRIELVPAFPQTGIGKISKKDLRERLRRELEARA

[1] = system: Mycobacterium tuberculosis; assay: Inhibition of siderophore production in Mycobacterium tuberculosis H37Rv at 200 uM after 12 hrs by radiometric assay; assay type: functional, organism-based
[2] = system: Mycobacterium tuberculosis; assay: Antimicrobial activity against Mycobacterium tuberculosis H37Rv assessed as inhibition of bacterial growth in iron-supplemented medium after 8 days; assay type: functional, organism-based; settings: 192 h
Yersinia pestis [3] = assay: Antimicrobial activity against Yersinia pestis assessed as inhibition of bacterial growth in iron-supplemented medium after 22 hrs; assay type: functional, organism-based
[4] = system: Mycobacterium tuberculosis; assay: Antimicrobial activity against Mycobacterium tuberculosis H37Rv assessed as inhibition of bacterial growth in iron-deficient medium after 8 days; assay type: functional, organism-based; settings: 192 h
Yersinia pestis [5] = assay: Antimicrobial activity against Yersinia pestis assessed as inhibition of bacterial growth in iron-deficient medium after 22 hrs; assay type: functional, organism-based
[6] = target: T2, AMP-binding enzyme family protein (Yersinia pestis) (UniProt Q56950); assay: Inhibition of His6-tagged Yersinia pestis YbtE-mediated [3H]salicyl-ypArCP-H6 formation up to 400 uM after 1.5 hrs by microplate counting
T2 sequence (whole entry): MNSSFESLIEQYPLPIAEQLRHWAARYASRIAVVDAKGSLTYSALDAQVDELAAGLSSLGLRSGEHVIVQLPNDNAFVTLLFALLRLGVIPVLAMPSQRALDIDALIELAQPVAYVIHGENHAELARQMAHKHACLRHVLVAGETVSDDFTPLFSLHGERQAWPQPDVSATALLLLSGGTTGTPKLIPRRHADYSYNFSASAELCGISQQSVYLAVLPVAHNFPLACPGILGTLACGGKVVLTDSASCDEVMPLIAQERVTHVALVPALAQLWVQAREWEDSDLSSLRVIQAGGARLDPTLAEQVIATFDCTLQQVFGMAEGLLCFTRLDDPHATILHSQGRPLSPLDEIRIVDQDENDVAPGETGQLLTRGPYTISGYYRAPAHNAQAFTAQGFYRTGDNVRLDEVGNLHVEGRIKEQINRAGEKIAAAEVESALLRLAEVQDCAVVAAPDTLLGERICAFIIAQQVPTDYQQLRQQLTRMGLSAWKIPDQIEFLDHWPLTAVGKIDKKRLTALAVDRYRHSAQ

Compound	IC50 (Pyochelin synthase PchD) [µM]	inhibition [1]	IC50 [2] [µM]	IC50 (Yersinia pestis [3]) [µM]	IC50 [4] [µM]	IC50 (Yersinia pestis [5]) [µM]	inhibition [6]
Nc1ncnc2c1ncn2[C@@H]1O[C@H](COS(=O)(=O)NC(=O)c2ccccc2O)[C@@H](O)[C@H]1O	0.0125	Active	39.9	> 400	2.2	51.2	–
Nc1ncnc2c1ncn2[C@@H]1O[C@H](COS(N)(=O)=O)[C@@H](O)[C@H]1O	–	–	–	–	–	–	inactive
